ChEMBL document CHEMBL1201862, “PubChem BioAssay data set” (2004)
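Cells were grown in 96-well plates and exposed to each compound for 48 hours at five concentrations; endpoints were interpolated linearly between bracketing concentrations, or set to the highest concentration if not reached. GI50 = concentration required for 50% inhibition of growth.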 The source made the active and inactive calls. No stated cut-off is given here; in the data, active = GI50 up to about 1.1 µM and inactive = higher.

Columns and labels:
Test in all cases: NCI tumour cell line growth inhibition, 48 h
A549 = tested on: A549
Malme-3M = tested on: Malme-3M
HCC 2998 = tested on: HCC 2998
RPMI-8226 = tested on: RPMI-8226
TK-10 = tested on: TK-10
MDA-MB-231 = tested on: MDA-MB-231
IGROV-1 = tested on: IGROV-1
UO-31 = tested on: UO-31
NCI-H23 = tested on: NCI-H23
CAKI-1 = tested on: CAKI-1
SNB-19 = tested on: SNB-19
CCRF-CEM = tested on: CCRF-CEM
RXF 393 = tested on: RXF 393
M14 = tested on: M14
SR = tested on: SR
HCT-116 = tested on: HCT-116
MOLT-4 = tested on: MOLT-4
SNB-75 = tested on: SNB-75
786-0 = tested on: 786-0
SF-539 = tested on: SF-539
MDA-N = tested on: MDA-N
T47D = tested on: T47D
NCI-H226 = tested on: NCI-H226
OVCAR-3 = tested on: OVCAR-3
MDA-MB-435 = tested on: MDA-MB-435
NCI/ADR-RES = tested on: NCI/ADR-RES
Hs-578T = tested on: Hs-578T
HOP-62 = tested on: HOP-62
SF-295 = tested on: SF-295
MCF7 = tested on: MCF7
U-251 = tested on: U-251
HOP-92 = tested on: HOP-92
SK-MEL-5 = tested on: SK-MEL-5
OVCAR-5 = tested on: OVCAR-5
HT-29 = tested on: HT-29
NCI-H522 = tested on: NCI-H522
SK-MEL-28 = tested on: SK-MEL-28
DU-145 = tested on: DU-145
COLO 205 = tested on: COLO 205
SF-268 = tested on: SF-268
SW-620 = tested on: SW-620
UACC-257 = tested on: UACC-257
ACHN = tested on: ACHN
NCI-H460 = tested on: NCI-H460
HL-60 = tested on: HL-60
OVCAR-8 = tested on: OVCAR-8
SN12C = tested on: SN12C
SK-MEL-2 = tested on: SK-MEL-2
LOX IMVI = tested on: LOX IMVI
A498 = tested on: A498
KM12 = tested on: KM12
UACC-62 = tested on: UACC-62
K562 = tested on: K562
EKVX = tested on: EKVX
HCT-15 = tested on: HCT-15
SK-OV-3 = tested on: SK-OV-3
OVCAR-4 = tested on: OVCAR-4
PC-3 = tested on: PC-3
BT-549 = tested on: BT-549

SMILES: O=C(O)c1c(CC(Cc2ccccc2)C(=O)O)ccc2c1CCC2 (stereo not drawn)
- GI50 (A549): > 100 µM (inactive)
- GI50 (Malme-3M): > 100 µM (inactive)
- GI50 (HCC 2998): > 100 µM (inactive)
- GI50 (RPMI-8226): > 100 µM (inactive)
- GI50 (TK-10): > 100 µM (inactive)
- GI50 (MDA-MB-231): > 100 µM (inactive)
- GI50 (IGROV-1): > 100 µM (inactive)
- GI50 (UO-31): > 100 µM (inactive)
- GI50 (NCI-H23): > 100 µM (inactive)
- GI50 (CAKI-1): > 100 µM (inactive)
- GI50 (SNB-19): > 100 µM (inactive)
- GI50 (CCRF-CEM): > 100 µM (inactive)
- GI50 (RXF 393): > 100 µM (inactive)
- GI50 (M14): > 10 µM (inactive)
- GI50 (SR): > 100 µM (inactive)
- GI50 (HCT-116): > 100 µM (inactive)
- GI50 (MOLT-4): > 100 µM (inactive)
- GI50 (SNB-75): > 100 µM (inactive)
- GI50 (786-0): > 100 µM (inactive)
- GI50 (SF-539): > 100 µM (inactive)
- GI50 (MDA-N): > 100 µM (inactive)
- GI50 (T47D): 66.5 µM (inactive)
- GI50 (NCI-H226): > 100 µM (inactive)
- GI50 (OVCAR-3): > 100 µM (inactive)
- GI50 (MDA-MB-435): > 100 µM (inactive)
- GI50 (NCI/ADR-RES): > 100 µM (inactive)
- GI50 (Hs-578T): > 100 µM (inactive)
- GI50 (HOP-62): > 100 µM (inactive)
- GI50 (SF-295): > 100 µM (inactive)
- GI50 (MCF7): > 100 µM (inactive)
- GI50 (U-251): > 100 µM (inactive)
- GI50 (HOP-92): > 100 µM (inactive)
- GI50 (SK-MEL-5): > 100 µM (inactive)
- GI50 (OVCAR-5): > 100 µM (inactive)
- GI50 (HT-29): > 100 µM (inactive)
- GI50 (NCI-H522): > 100 µM (inactive)
- GI50 (SK-MEL-28): > 100 µM (inactive)
- GI50 (DU-145): > 100 µM (inactive)
- GI50 (COLO 205): > 100 µM (inactive)
- GI50 (SF-268): > 100 µM (inactive)
- GI50 (SW-620): > 100 µM (inactive)
- GI50 (UACC-257): > 100 µM (inactive)
- GI50 (ACHN): > 100 µM (inactive)
- GI50 (NCI-H460): > 100 µM (inactive)
- GI50 (HL-60): > 100 µM (inactive)
- GI50 (OVCAR-8): > 100 µM (inactive)
- GI50 (SN12C): > 100 µM (inactive)
- GI50 (SK-MEL-2): > 100 µM (inactive)
- GI50 (LOX IMVI): > 100 µM (inactive)
- GI50 (A498): > 100 µM (inactive)
- GI50 (KM12): > 100 µM (inactive)
- GI50 (UACC-62): 4.11 µM (inactive)
- GI50 (K562): > 100 µM (inactive)
- GI50 (EKVX): > 100 µM (inactive)
- GI50 (HCT-15): > 100 µM
- GI50 (SK-OV-3): > 100 µM (inactive)
- GI50 (OVCAR-4): > 100 µM (inactive)
- GI50 (PC-3): > 100 µM (inactive)
- GI50 (BT-549): > 100 µM (inactive)

SMILES: C[n+]1c(-c2ccc(/C=C/C=N\NC(=O)c3ccc(C(=O)N/N=C\C=C\c4ccc(-c5cn6ccccc6[n+]5C)cc4)cc3)cc2)cn2ccccc21
- GI50 (A549): 74.1 µM (inactive)
- GI50 (Malme-3M): > 100 µM (inactive)
- GI50 (HCC 2998): > 54.7 µM (inactive)
- GI50 (RPMI-8226): 38.1 µM (inactive)
- GI50 (TK-10): > 86.3 µM (inactive)
- GI50 (MDA-MB-231): > 43.3 µM (inactive)
- GI50 (IGROV-1): > 68.5 µM (inactive)
- GI50 (UO-31): > 100 µM (inactive)
- GI50 (NCI-H23): 71.4 µM (inactive)
- GI50 (CAKI-1): 38.7 µM (inactive)
- GI50 (SNB-19): > 63.4 µM (inactive)
- GI50 (CCRF-CEM): 23.9 µM (inactive)
- GI50 (RXF 393): > 96.2 µM (inactive)
- GI50 (M14): > 100 µM (inactive)
- GI50 (SR): 19.9 µM (inactive)
- GI50 (HCT-116): > 100 µM (inactive)
- GI50 (MOLT-4): 43.6 µM (inactive)
- GI50 (SNB-75): > 100 µM (inactive)
- GI50 (786-0): 30.3 µM (inactive)
- GI50 (SF-539): > 100 µM (inactive)
- GI50 (MDA-N): > 100 µM (inactive)
- GI50 (T47D): > 48.1 µM (inactive)
- GI50 (NCI-H226): > 100 µM (inactive)
- GI50 (OVCAR-3): > 64 µM (inactive)
- GI50 (MDA-MB-435): > 100 µM (inactive)
- GI50 (NCI/ADR-RES): > 100 µM (inactive)
- GI50 (Hs-578T): > 100 µM (inactive)
- GI50 (HOP-62): > 100 µM (inactive)
- GI50 (SF-295): > 100 µM (inactive)
- GI50 (MCF7): > 94.8 µM (inactive)
- GI50 (U-251): 44.7 µM (inactive)
- GI50 (HOP-92): > 100 µM (inactive)
- GI50 (SK-MEL-5): > 84.5 µM (inactive)
- GI50 (OVCAR-5): > 100 µM (inactive)
- GI50 (HT-29): > 100 µM (inactive)
- GI50 (NCI-H522): > 100 µM (inactive)
- GI50 (SK-MEL-28): > 100 µM (inactive)
- GI50 (DU-145): > 54.3 µM (inactive)
- GI50 (COLO 205): > 100 µM (inactive)
- GI50 (SF-268): > 100 µM (inactive)
- GI50 (SW-620): > 100 µM (inactive)
- GI50 (UACC-257): > 100 µM (inactive)
- GI50 (ACHN): > 100 µM (inactive)
- GI50 (NCI-H460): > 100 µM (inactive)
- GI50 (HL-60): 30.2 µM (inactive)
- GI50 (OVCAR-8): > 100 µM (inactive)
- GI50 (SN12C): > 100 µM (inactive)
- GI50 (SK-MEL-2): > 100 µM (inactive)
- GI50 (LOX IMVI): > 68.7 µM (inactive)
- GI50 (A498): > 100 µM (inactive)
- GI50 (KM12): 39.1 µM (inactive)
- GI50 (UACC-62): > 100 µM (inactive)
- GI50 (K562): 27.5 µM (inactive)
- GI50 (EKVX): > 100 µM (inactive)
- GI50 (HCT-15): > 100 µM
- GI50 (SK-OV-3): > 100 µM (inactive)
- GI50 (OVCAR-4): > 81.7 µM (inactive)
- GI50 (PC-3): > 100 µM (inactive)
- GI50 (BT-549): 38.2 µM (inactive)
